The values that follow come from US12509431B2, “1,4-dihydroquinazolinone compounds and uses thereof” (Edgewise Therapeutics, Inc., priority 2022, dated 2025).

Experiment [1] relates to Rabbit Skeletal myofibrils (rabbit psoas muscle). As to the kind of experiment: Myofibril ATPase assay (PK/LDH NADH-coupled), skeletal myofibrils. The format is biochemical. The method, boiled down:
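ATPase rate taken as linear-regression slope of A340 (NADH depletion through PK/LDH coupling) over a 75 min kinetic read, with psoas-derived rabbit skeletal myofibrils at pH 7.0. Four-parameter fits of vehicle-normalized activity give EC25 and, where reached, EC50.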

Experiment [2] concerns Porcine Atria myofibrils. Briefly: Myofibril ATPase assay (PK/LDH NADH-coupled), atria myofibrils. The format is biochemical. The procedure, abridged:
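Values are EC25% (and, for inhibitors, EC50%) from 4-parameter logistic fits of activity normalized to vehicle wells. Rates came from linear regression of 340 nm kinetic reads (every 1.5-2 min, 75 min) of NADH-coupled ATP turnover by porcine atria myofibrils.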

Experiment [3] addresses T1, Porcine Ventricle myofibrils (left ventricle of Yucatan minipigs) (Sus scrofa, UniProt P79293).
T1 construct: Myofibrils from porcine cardiac muscle was isolated from the left ventricle of Yucatan minipigs; tissue Exemplar Genetics; host or cells: left ventricle of Yucatan minipigs
As to the kind of experiment: Myofibril ATPase assay (PK/LDH NADH-coupled), ventricle myofibrils. The format is biochemical. The procedure, abridged: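 NADH depletion (A340) coupled through pyruvate kinase/lactate dehydrogenase reports ATPase rate of porcine left-ventricle myofibrils over 75 min kinetic reads. Regression slopes, vehicle-normalized, fitted by 4-parameter logistic give EC25 and, where available, EC50.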

In experiment [4] the test system is isoflurane-anesthetized SD rats. Briefly: In vivo echocardiography of systolic cardiac performance (FS, SWT, HR, LV volumes) after a single oral dose. The following applies: Rattus norvegicus, single dose 10 mg/kg PO, ~2 hrs post-dosing, vs. vehicle. On the procedure: Experiments were performed to evaluate the in vivo ability of the compounds of the disclosure to modulate systolic cardiac performance. Non-invasively echocardiography was used to assess cardiac indicators in isoflurane-anesthetized SD rats. A set of conscious rats were treated with either vehicle control (0 mg/kg PO; n=78) or a single dose of an test compound (10 mg/kg PO, n=2 to 6/compound) via oral gavage. Cardiac function/geometry were recorded at two separate time-points/days: once prior to dosing (i.e., at baseline, day −2) and at ˜2 hrs post-dosing (day 0).
In these experiments, heart rate (HR), echocardiography-derived indices of left-ventricular systolic performance, as well as dimensions/volumes were measured using a high-frequency transducer and parastemnal long-axis transthoracic views (Vevo3100, VisualSonic). LV fractional shortening (FS), an index of systolic function, was defined as the end-diastole normalized change in internal dimensions divided by the […] (LVid) of the left ventricle between end-systole (LVids) and end-diastole (LVidd) (i.e., FS=100·[LVidd−LVids]/LVidd). LV volumes were derived using the Teichholz formula (LVV=7·LVid^3/[2.4+LVid]). In addition, a systolic wall-thickening index (SWT) was also evaluated. SWT is defined as the relative ratio (end-diastole normalized) of left-ventricular (anterior and posterior) wall-thickness change during systole; i.e., SWT=I{[(anterior LV wall thickness in systole−anterior LV wall thickness in diastole)][…][(posterior LV wall thickness in systole−posterior LV wall thickness in diastole)]}/{2*diastolic thickness}. In all cases, blood samples were taken (via either tail-vein micro-sampling or cardiac-puncture) at the time of each echocardiographic examination in order to establish pharmacokinetic (PK)/pharmacodynamics (PD) relationships.

The mark [5] stands for this setting: EDV (LV volume, Teichholz formula), read-out: EDV % vs. VEH.
[6] abbreviates: LV fractional shortening, read-out: FS % vs. VEH.
The mark [7] stands for this setting: heart rate, read-out: HR % vs. VEH.
Where [8] appears, read: systolic wall-thickening index, read-out: SWT % vs. VEH.

Where two headings read alike, the source gives them in different places.

T1 sequence (P79293 whole entry): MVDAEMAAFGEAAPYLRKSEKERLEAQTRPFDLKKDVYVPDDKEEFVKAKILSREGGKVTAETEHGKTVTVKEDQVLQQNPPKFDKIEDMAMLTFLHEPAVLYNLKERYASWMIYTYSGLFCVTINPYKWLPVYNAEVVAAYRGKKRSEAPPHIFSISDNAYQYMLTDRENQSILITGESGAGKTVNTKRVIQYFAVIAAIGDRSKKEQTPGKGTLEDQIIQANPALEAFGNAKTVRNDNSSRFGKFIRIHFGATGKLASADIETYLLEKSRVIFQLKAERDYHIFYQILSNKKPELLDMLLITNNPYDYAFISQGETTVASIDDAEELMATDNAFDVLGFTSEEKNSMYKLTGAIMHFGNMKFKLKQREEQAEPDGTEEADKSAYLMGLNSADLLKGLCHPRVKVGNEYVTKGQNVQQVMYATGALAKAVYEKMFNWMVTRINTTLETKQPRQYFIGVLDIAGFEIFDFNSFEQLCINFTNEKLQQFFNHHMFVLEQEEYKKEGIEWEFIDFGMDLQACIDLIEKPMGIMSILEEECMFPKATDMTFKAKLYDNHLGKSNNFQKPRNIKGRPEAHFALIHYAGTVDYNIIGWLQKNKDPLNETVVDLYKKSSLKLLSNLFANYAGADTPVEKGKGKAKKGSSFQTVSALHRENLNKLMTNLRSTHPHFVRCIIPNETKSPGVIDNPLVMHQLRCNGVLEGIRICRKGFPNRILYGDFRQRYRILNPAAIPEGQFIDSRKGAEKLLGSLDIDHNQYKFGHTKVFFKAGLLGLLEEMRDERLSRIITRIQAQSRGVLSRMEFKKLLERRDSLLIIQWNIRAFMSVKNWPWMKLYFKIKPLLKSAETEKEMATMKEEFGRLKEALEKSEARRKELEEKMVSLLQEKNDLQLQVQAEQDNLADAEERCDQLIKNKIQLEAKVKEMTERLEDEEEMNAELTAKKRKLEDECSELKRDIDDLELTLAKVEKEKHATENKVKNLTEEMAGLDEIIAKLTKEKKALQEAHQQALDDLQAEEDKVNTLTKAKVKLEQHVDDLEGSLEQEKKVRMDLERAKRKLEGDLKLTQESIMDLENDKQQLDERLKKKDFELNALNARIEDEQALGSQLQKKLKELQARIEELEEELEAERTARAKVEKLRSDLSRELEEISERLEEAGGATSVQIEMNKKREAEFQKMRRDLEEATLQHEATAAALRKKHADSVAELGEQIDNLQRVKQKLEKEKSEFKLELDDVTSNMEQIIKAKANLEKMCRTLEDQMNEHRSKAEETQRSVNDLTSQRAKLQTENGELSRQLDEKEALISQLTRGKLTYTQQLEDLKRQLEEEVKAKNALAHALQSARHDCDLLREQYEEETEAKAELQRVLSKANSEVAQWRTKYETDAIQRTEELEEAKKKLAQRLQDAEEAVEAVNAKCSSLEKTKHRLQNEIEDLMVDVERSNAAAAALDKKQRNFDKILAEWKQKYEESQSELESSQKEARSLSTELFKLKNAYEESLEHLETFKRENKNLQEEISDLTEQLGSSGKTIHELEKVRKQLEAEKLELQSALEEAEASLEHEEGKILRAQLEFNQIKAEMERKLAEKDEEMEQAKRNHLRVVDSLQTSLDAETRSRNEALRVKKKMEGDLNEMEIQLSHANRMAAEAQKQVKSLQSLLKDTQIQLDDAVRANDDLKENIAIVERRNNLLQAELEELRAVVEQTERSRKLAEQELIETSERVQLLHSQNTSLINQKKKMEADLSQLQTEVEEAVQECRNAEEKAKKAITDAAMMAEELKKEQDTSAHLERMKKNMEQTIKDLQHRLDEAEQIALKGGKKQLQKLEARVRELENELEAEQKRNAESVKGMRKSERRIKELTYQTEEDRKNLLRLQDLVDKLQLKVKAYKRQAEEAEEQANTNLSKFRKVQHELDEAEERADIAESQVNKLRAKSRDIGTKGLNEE

`Cc1nc(C#N)cnc1C(C)NC(=O)CN1Cc2c(ccc(F)c2F)NC1=O` (single isomer, unassigned) [Compound B55]: the “Rabbit Psoas IC25” value in experiment [1] (Table 8) stood at 0.0114 µM. In experiment [2] (Table 8), the “Porcine Atria IC25” value worked out at 0.05 µM. The “Porcine Ventricle IC25” value in experiment [3] (Table 8) came to 0.0533 µM. Besides, the change in vivo at 10 mg/kg in experiment [4] (setting [5]) is 70%; in experiment [4] (setting [6]), -36%; in experiment [4] (setting [7]), -5%; in experiment [4] (setting [8]), 10%.
With `C[C@H](NC(=O)CN1Cc2c(ccc(F)c2F)NC1=O)c1ncc(C#N)cc1F` [Compound B142], the “Rabbit Psoas IC25” value in experiment [1] (Table 8) came to 0.02168 µM. For the same compound, in experiment [2] (Table 8), the “Porcine Atria IC25” value is 0.04 µM. In experiment [3] (Table 8), the “Porcine Ventricle IC25” value came to 0.05434 µM. Further, the change in vivo at 10 mg/kg in experiment [4] (setting [5]) was 21%; in experiment [4] (setting [6]), -81%; in experiment [4] (setting [7]) it was 6%; in experiment [4] (setting [8]) it was -78%.
For `N#Cc1c(F)ccc2c1CN(CC(=O)N[C@@H](CO)c1ccc(F)cc1F)C(=O)N2` [Compound B152], the “Rabbit Psoas IC25” value in experiment [1] (Table 8) worked out at 0.03953 µM. The “Porcine Atria IC25” value in experiment [2] (Table 8) was 0.17 µM. Also, in experiment [3] (Table 8), the “Porcine Ventricle IC25” value worked out at 0.2946 µM. Besides, the change in vivo at 10 mg/kg in experiment [4] (setting [5]) was -6%; in experiment [4] (setting [6]), 6%; in experiment [4] (setting [7]), 1%; in experiment [4] (setting [8]) it was -2%.
In the case of `O=C(CN1Cc2cc(F)ccc2NC1=O)N[C@@H](CO)c1ncc(F)cc1F` [Compound B181], in experiment [1] (Table 8), the “Rabbit Psoas IC25” value turned out to be 0.242 µM. The “Porcine Atria IC25” value in experiment [2] (Table 8) worked out at 0.13 µM. The “Porcine Ventricle IC25” value in experiment [3] (Table 8) is 1.905 µM. For the same compound, the change in vivo at 10 mg/kg in experiment [4] (setting [5]) is -6%; in experiment [4] (setting [6]), -13%; in experiment [4] (setting [7]), 8%; in experiment [4] (setting [8]) it was -5%.
Regarding `C[C@@H](NC(=O)CN1C(=O)Nc2ccc(F)c(F)c2C1O)c1ncc(C#N)cc1F` (some centres unmarked) [Compound B327], the change in vivo at 10 mg/kg in experiment [4] (setting [5]) was -2%; in experiment [4] (setting [6]), -1%; in experiment [4] (setting [7]) it was 5%; in experiment [4] (setting [8]), 10%.
Take `C[C@@H](NC(=O)CN1Cc2cc(F)c(F)cc2NC1=O)c1ncc(C#N)cc1F` [Compound B357]: in experiment [1] (Table 8), the “Rabbit Psoas IC25” value was 50.29 µM. For the same compound, the “Porcine Atria IC25” value in experiment [2] (Table 8) worked out at 1.56 µM. Further, the “Porcine Ventricle IC25” value in experiment [3] (Table 8) stood at 100.00 µM. Moreover, the change in vivo at 10 mg/kg is 5% in experiment [4] (setting [5]), -8% in experiment [4] (setting [6]), -5% in experiment [4] (setting [7]) and -5% in experiment [4] (setting [8]).
Take `[2H]C1([2H])c2c(ccc(F)c2F)NC(=O)N1CC(=O)N[C@@H](C)c1ncc(C#N)cc1F` [Compound B366]: the “Rabbit Psoas IC25” value in experiment [1] (Table 8) is 0.05 µM. For the same compound, in experiment [2] (Table 8), the “Porcine Atria IC25” value is 0.07 µM. Also, the “Porcine Ventricle IC25” value in experiment [3] (Table 8) came to 0.77 µM. The change in vivo at 10 mg/kg was 82% in experiment [4] (setting [5]), -71% in experiment [4] (setting [6]), -2% in experiment [4] (setting [7]) and -41% in experiment [4] (setting [8]).
`[2H]C1([2H])c2c(ccc(F)c2F)NC(=O)N1CC(=O)N[C@H](C)c1ncc(C#N)cc1F` [Compound B367]: the “Rabbit Psoas IC25” value in experiment [1] (Table 8) was 0.78 µM. For the same compound, the “Porcine Atria IC25” value in experiment [2] (Table 8) is 0.32 µM. Besides, the “Porcine Ventricle IC25” value in experiment [3] (Table 8) is 0.55 µM. The change in vivo at 10 mg/kg was -6% in experiment [4] (setting [5]), -31% in experiment [4] (setting [6]), 10% in experiment [4] (setting [7]) and -32% in experiment [4] (setting [8]).
Turning to `C[C@H](NC(=O)CN1Cc2c(ccnc2OCC(F)F)NC1=O)c1ccc(F)cc1F` [Compound N122], the “Rabbit Psoas IC25” value in experiment [1] (Table 7) came to 0.0567 µM. Moreover, the “Porcine Atria IC25” value in experiment [2] (Table 7) is 0.36 µM. Moreover, the “Porcine Ventricle IC25” value in experiment [3] (Table 7) was 11.42 µM.
As to `C[C@H](NC(=O)CN1Cc2nc(F)ccc2NC1=O)c1ccc(F)cc1F` [Compound N123], in experiment [1] (Table 7), the “Rabbit Psoas IC25” value was 0.03514 µM. Also, the “Porcine Atria IC25” value in experiment [2] (Table 7) amounted to 0.07 µM. Besides, the “Porcine Ventricle IC25” value in experiment [3] (Table 7) turned out to be 0.8592 µM.
As to `C[C@H](NC(=O)CN1Cc2c(ccnc2F)NC1=O)c1ccc(F)cc1F` [Compound N124], the “Rabbit Psoas IC25” value in experiment [1] (Table 7) stood at 0.0503 µM. Besides, the “Porcine Atria IC25” value in experiment [2] (Table 7) was 0.08 µM. In addition, the “Porcine Ventricle IC25” value in experiment [3] (Table 7) was 0.2452 µM.
With `COc1nccc2c1CN(CC(=O)N[C@@H](C)c1ccc(F)cc1F)C(=O)N2` [Compound N125, N-[(1S)-1-(2,4-Difluorophenyl)ethyl]-2-{5-methoxy-2-oxo-1H,4H-pyrido[4,3-d]pyrimidin-3-yl}acetamide], the “Rabbit Psoas IC25” value in experiment [1] (Table 7) was 0.0423 µM. In experiment [2] (Table 7), the “Porcine Atria IC25” value is 0.68 µM. Besides, the “Porcine Ventricle IC25” value in experiment [3] (Table 7) worked out at 2.663 µM.
As for `C[C@H](NC(=O)CN1Cc2c(ccnc2C(F)(F)F)NC1=O)c1ccc(F)cc1F` [Compound N126], the “Rabbit Psoas IC25” value in experiment [1] (Table 7) came to 0.07562 µM. The “Porcine Atria IC25” value in experiment [2] (Table 7) worked out at 0.60 µM. In addition, the “Porcine Ventricle IC25” value in experiment [3] (Table 7) came out at 4.027 µM.
On to `C[C@H](NC(=O)CN1Cc2c(ccnc2C2CC2)NC1=O)c1ccc(F)cc1F` [Compound N127, 2-[5-Cyclopropyl-2-oxo-1H,4H-pyrido[4,3-d]pyrimidin-3-yl]-N-[(1S)-1-(2,4-difluorophenyl)ethyl]acetamide], for which, in experiment [1] (Table 7), the “Rabbit Psoas IC25” value is 0.2931 µM. For the same compound, the “Porcine Atria IC25” value in experiment [2] (Table 7) stood at 3.12 µM. Besides, in experiment [3] (Table 7), the “Porcine Ventricle IC25” value was 73.05 µM.
As to `C[C@H](NC(=O)CN1Cc2c(ccnc2Cl)NC1=O)c1ccc(F)cc1F` [Compound N128, 2-{5-Chloro-2-oxo-1H,4H-pyrido[4,3-d]pyrimidin-3-yl}-N-[(1S)-1-(2,4-difluorophenyl)ethyl]acetamide], in experiment [1] (Table 7), the “Rabbit Psoas IC25” value was found to be 0.0418 µM. Moreover, in experiment [2] (Table 7), the “Porcine Atria IC25” value came out at 0.08 µM. Moreover, the “Porcine Ventricle IC25” value in experiment [3] (Table 7) turned out to be 0.2533 µM.
As to `Cc1nccc2c1CN(CC(=O)N[C@@H](C)c1ccc(F)cc1F)C(=O)N2` [Compound N129, N-[(1S)-1-(2,4-Difluorophenyl)ethyl]-2-{5-methyl-2-oxo-1H,4H-pyrido[4,3-d]pyrimidin-3-yl}acetamide], the “Rabbit Psoas IC25” value in experiment [1] (Table 7) was 0.559 µM. Also, the “Porcine Atria IC25” value in experiment [2] (Table 7) was 4.20 µM. Also, in experiment [3] (Table 7), the “Porcine Ventricle IC25” value is 4.847 µM.
The corresponding values for `O=C(CN1Cc2cnccc2NC1=O)N[C@H]1CCCc2cc(F)cc(F)c21` [Compound N130] are 0.688 µM, 1.54 µM and 100 µM.
Consider `C[C@H](NC(=O)CN1Cc2cnccc2NC1=O)c1ccc(Cl)cc1` [Compound N131], for which the “Rabbit Psoas IC25” value in experiment [1] (Table 7) is 8.051 µM. The “Porcine Atria IC25” value in experiment [2] (Table 7) is 36.11 µM. For the same compound, the “Porcine Ventricle IC25” value in experiment [3] (Table 7) was found to be 100 µM.
For `Cc1cc(F)ccc1[C@H](C)NC(=O)CN1Cc2cnccc2NC1=O` [Compound N132], the “Rabbit Psoas IC25” value in experiment [1] (Table 7) was determined as 1.636 µM. Besides, in experiment [2] (Table 7), the “Porcine Atria IC25” value stood at 3.75 µM. In addition, the “Porcine Ventricle IC25” value in experiment [3] (Table 7) is 97.09 µM.
Turning to `C[C@H](NC(=O)CN1Cc2cnccc2NC1=O)c1ccc(F)cc1F` [Compound N133], the “Rabbit Psoas IC25” value in experiment [1] (Table 7) was determined as 0.8391 µM. Besides, in experiment [2] (Table 7), the “Porcine Atria IC25” value was determined as 2.80 µM. Moreover, in experiment [3] (Table 7), the “Porcine Ventricle IC25” value came to 13.9 µM.
As to `N#Cc1cnc2c(n1)CC[C@H]2NC(=O)CN1C(=O)Nc2ccc(C#N)nc2C12CC2` [Compound N135], the “Rabbit Psoas IC25” value in experiment [1] (Table 7) was determined as 100.00 µM. In addition, the “Porcine Atria IC25” value in experiment [2] (Table 7) worked out at 6.42 µM. In addition, the “Porcine Ventricle IC25” value in experiment [3] (Table 7) was 100.00 µM.
As to `N#Cc1cnc2c(n1)CC[C@@H]2NC(=O)CN1C(=O)Nc2ccc(C#N)nc2C12CC2` [Compound N136], in experiment [1] (Table 7), the “Rabbit Psoas IC25” value amounted to 100.00 µM. The “Porcine Atria IC25” value in experiment [2] (Table 7) turned out to be 0.29 µM. Besides, the “Porcine Ventricle IC25” value in experiment [3] (Table 7) was 10.90 µM.
